# Test system: P12-Ichikawa
# Assay: cell viability relative to DMSO control; higher = less cytotoxic
# Conditions: 48 h
# Procedure, shortened: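 Viability, reported as a per-plate percentage of DMSO wells with cell-free wells as background, came from CellTiter-Glo One luminescence. Reading took place after 48 h at 37°C. Before that, NOMO1 or SEM (500 cells/well) or P12-Ichikawa (1000 cells/well) leukemia cells, adapted for at least four passages in each medium, were seeded in 1536-well plates (5 μl) and pin-dosed with library compounds in DMSO, 47 μM to 0.79 nM over 11 threefold points.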
# [1] = HPLM + 10% dialyzed FBS, 0.000781 µM
# [2] = HPLM + 10% dialyzed FBS, 0.00234 µM
# [3] = HPLM + 10% dialyzed FBS, 0.00702 µM
# [4] = HPLM + 10% dialyzed FBS, 0.0211 µM
# [5] = HPLM + 10% dialyzed FBS, 0.0632 µM
# [6] = HPLM + 10% dialyzed FBS, 0.19 µM
# [7] = HPLM + 10% dialyzed FBS, 0.569 µM
# [8] = HPLM + 10% dialyzed FBS, 1.71 µM
# [9] = HPLM + 10% dialyzed FBS, 5.12 µM
# [10] = HPLM + 10% dialyzed FBS, 15.4 µM
# [11] = HPLM + 10% dialyzed FBS, 46.1 µM
# [12] = RPMI 5 mM glucose + 10% FBS, 0.000781 µM
# [13] = RPMI 5 mM glucose + 10% FBS, 0.00234 µM
# [14] = RPMI 5 mM glucose + 10% FBS, 0.00702 µM
# [15] = RPMI 5 mM glucose + 10% FBS, 0.0211 µM
# [16] = RPMI 5 mM glucose + 10% FBS, 0.0632 µM
# [17] = RPMI 5 mM glucose + 10% FBS, 0.19 µM
# [18] = RPMI 5 mM glucose + 10% FBS, 0.569 µM
# [19] = RPMI 5 mM glucose + 10% FBS, 1.71 µM
# [20] = RPMI 5 mM glucose + 10% FBS, 5.12 µM
# [21] = RPMI 5 mM glucose + 10% FBS, 15.4 µM
# [22] = RPMI 5 mM glucose + 10% FBS, 46.1 µM
# [23] = RPMI 5 mM glucose + 10% dialyzed FBS, 0.000781 µM
# [24] = RPMI 5 mM glucose + 10% dialyzed FBS, 0.00234 µM
# [25] = RPMI 5 mM glucose + 10% dialyzed FBS, 0.00702 µM
# [26] = RPMI 5 mM glucose + 10% dialyzed FBS, 0.0211 µM
# [27] = RPMI 5 mM glucose + 10% dialyzed FBS, 0.0632 µM
# [28] = RPMI 5 mM glucose + 10% dialyzed FBS, 0.19 µM
# [29] = RPMI 5 mM glucose + 10% dialyzed FBS, 0.569 µM
# [30] = RPMI 5 mM glucose + 10% dialyzed FBS, 1.71 µM
# [31] = RPMI 5 mM glucose + 10% dialyzed FBS, 5.12 µM
# [32] = RPMI 5 mM glucose + 10% dialyzed FBS, 15.4 µM
# [33] = RPMI 5 mM glucose + 10% dialyzed FBS, 46.1 µM
SMILES,cell viability [1] [%],cell viability [2] [%],cell viability [3] [%],cell viability [4] [%],cell viability [5] [%],cell viability [6] [%],cell viability [7] [%],cell viability [8] [%],cell viability [9] [%],cell viability [10] [%],cell viability [11] [%],cell viability [12] [%],cell viability [13] [%],cell viability [14] [%],cell viability [15] [%],cell viability [16] [%],cell viability [17] [%],cell viability [18] [%],cell viability [19] [%],cell viability [20] [%],cell viability [21] [%],cell viability [22] [%],cell viability [23] [%],cell viability [24] [%],cell viability [25] [%],cell viability [26] [%],cell viability [27] [%],cell viability [28] [%],cell viability [29] [%],cell viability [30] [%],cell viability [31] [%],cell viability [32] [%],cell viability [33] [%]
CN1CCN(c2ccc([N+](=O)[O-])c3no[n+]([O-])c23)CC1,84.1,85.5,87.8,93.8,99,91.5,94.2,90.6,95.7,95.2,82.9,86.1,92.4,93.1,89,94.7,97.7,93.2,88.1,95.4,86.6,91.3,91.9,91.9,91.2,92.1,98.8,91.8,93.6,89,90.2,91.1,77.8
N#Cc1c(NC(=O)c2cccc3ccccc23)sc2c1CCCC2,121,122,126,123,136,132,82.4,21.6,18.2,28.2,27.4,,,,,,,,,,,,,,,,,,,,,,
CCN1\C=C(\C(O)=O)C(=O)C2=CC=C(C)N=C12,88.3,93.8,101,96.3,101,93.7,105,97.6,95.7,105,93.6,79.7,82.3,90,90.1,84.6,89.3,89.7,90.6,88.8,98.8,97,77.2,90.6,87.1,91,96,88.6,86.4,87.4,91.3,92.4,90.1
C/C=C(/C)C(=O)O[C@H]1C(C)=C[C@]23C(=O)[C@@H](C=C(CO)[C@@H](O)[C@]12O)[C@H]1[C@@H](C[C@H]3C)C1(C)C,111,122,106,99.1,96.8,90.6,87,97.2,97.3,79.7,81.4,122,131,99.8,87.9,79.7,79.2,82.3,82.4,78.2,77.8,74.9,116,122,101,94.6,89.9,81.6,79,82.6,86.7,81.1,70.6
CC(C)NC[C@@H](C(=O)N1CCN(c2ncnc3c2[C@H](C)C[C@H]3O)CC1)c1ccc(Cl)cc1,118,120,114,109,100,99.5,92.8,83,67,48.2,28.1,109,105,111,107,100,85.8,71.3,65.2,52.8,44.4,33.6,112,109,114,115,103,95.3,85.2,78.1,55.5,37.2,23.5
O=C(NC[C@H](O)CO)c1ccncc1Nc1ccc(I)cc1F,100,112,71.4,113,107,105,102,102,97.5,91.4,87.5,101,118,66.3,106,96,90.4,98.6,91.4,88.7,78.6,59.6,94.9,119,73.4,118,99.5,109,105,104,90.2,96.6,76.5
C\C1=C(\C=C(\C#N)C(=O)N1)C2=CC=NC=C2,104,104,102,102,105,106,107,115,109,109,13.8,110,114,112,118,118,107,112,118,112,121,18.4,94.6,105,103,98.9,110,107,109,110,111,108,27.9
COc1ncc(-c2ccc3nccc(-c4ccnnc4)c3c2)cc1N[S+](=O)([O-])c1ccc(F)cc1F,118,115,115,106,101,95.6,95.3,74.8,35.8,17,11.3,139,111,91.1,91.4,83.3,77,69.9,55.9,40,17.5,8.78,131,113,101,97.3,89,90.3,80.5,61.3,47.5,13.6,9.07
COc1cc(OC)c(/C=C/[S+](=O)([O-])Cc2ccc(OC)c(NCC(=O)[O][Na])c2)c(OC)c1,125,124,123,120,116,87.5,18.3,13.2,12.7,10.1,9.65,124,120,126,104,118,76.9,23.1,12.5,11.1,11.4,10.8,120,122,120,115,116,50.1,24.6,13.8,12,11.3,9.89
O=C(Nc1ccccc1-c1cn2c(CN3CCNCC3)csc2n1)c1cnc2ccccc2n1,84.5,89.8,89.3,84.4,90.1,88.3,85.3,84.5,83.9,75.3,0.861,80.4,85.3,83.6,85.2,86.5,86.1,79.8,76.2,82.9,67.9,1.29,83,84,80.3,80.5,78.1,87.4,78.4,78.7,77.8,69,1.1
COc1ccc(-n2nc(C(N)=O)c3c2C(=O)N(c2ccc(N4CCCCC4=O)cc2)CC3)cc1,118,121,125,132,132,127,141,124,16,15.2,14.8,,,,,,,,,,,,,,,,,,,,,,
CN(C)[C@H]\1[C@@H]2C[C@H]3C(=C(O)\[C@]2(O)C(=O)\C(=C1O)C(N)=O)/C(=O)C4=C(O)C=CC=C4[C@@]3(C)O,113,115,114,115,113,116,114,111,114,108,93.9,112,103,109,116,118,110,114,107,115,92.8,98.8,114,101,114,111,116,116,111,104,105,97.5,97
CC/1=C(/N2[C@H](SC1)[C@H](NC(=O)[C@H](N)\C3=C\C\C=C/C3)C2=O)C(O)=O,96.8,117,116,121,126,115,111,126,128,120,113,99.5,91.8,110,116,103,120,117,119,120,124,122,111,112,116,112,118,118,118,117,125,133,125
CN1CCCN=C1/C=C/c1cccs1.O=C(O)c1cc2ccccc2c(Cc2c(O)c(C(=O)O)cc3ccccc23)c1O,114,117,118,122,112,111,111,111,103,25,10.2,109,121,114,122,114,114,105,114,110,115,101,114,123,115,115,120,115,108,112,114,98.2,82.9
